{
  "source": "patent US9012436B2",
  "about": "“Lipid composition” (Diurnal Limited, priority 2008, dated 2015)",
  "experiment": "Solubilisation capacity of formulation systems for testosterone",
  "procedure": "The formulation systems as detailed in Table 1 all show significant solubilisation capacity for testosterone (>50 mg/^1) which is at least 100-fold higher than that achievable in aqueous media (<0.3 mg/g^1) and at least 5-fold higher than that achievable in single component lipidic vehicles alone (max.<10 mg/g).\n^1N.B: For aqueous systems 1 g=1 mL; for oil systems 1 g=>1 mL",
  "data": [
    {"compound": "C[C@]12CC[C@H]3[C@@H](CCC4=CC(=O)CC[C@@]43C)[C@@H]1CC[C@@H]2O", "note": "[testosterone]", "values": [
      {"measurement": "Solubility of testosterone achievable in aqueous media", "setting": "aqueous media", "result": "< 0.3", "unit": "mg/g"},
      {"measurement": "Solubility of testosterone achievable in single component lipidic vehicles alone", "setting": "single component lipidic vehicles, max.", "result": "< 10", "unit": "mg/g"}
    ]}
  ]
}
